How the values were obtained:
[1] = system: cortical neurons
Method: Treatment with 1 μM PD 0332991 (obtained from Pfizer) was carried out for 12 h in complete medium; H2O2 was added at the indicated times and doses.
Analysis of neuronal survival and apoptosis. Neuronal viability was assessed by quantifying apoptotic nuclei following the treatments. Cells were fixed and stained with DNA-binding dye propidium iodide (PI) (10 μg/ml; Sigma), and the percentage of cells with apoptotic nuclei was calculated as described previously (Kruman, I. I., et al. 2002. J. Neurosci. 22:1752-1762; Tenneti, L. and S. A. Lipton. 2000. J Neurochem. 74:134-142). Nuclear staining was viewed and photographed using a Zeiss fluorescence microscope. Apoptosis was also determined by immunoblot analysis for activated (cleaved) caspase-3 (polyclonal; 1 μg/ml; Upstate Cell Signaling Solutions), cleaved Mcm3 (polyclonal, 1:200; Santa-Cruz), Mcm2 (BM28; monoclonal; 1:200; BD Biosciences), and fractin (cleaved β-actin; 1:3000; Chemicon) in cellular extracts from corresponding neuronal 5 cultures.

[2] = system: cortical neurons; conditions: 5 μM H2O2, 6 h; neutral comet assay; FIG. 2A
Method: Single Cell Gel Electrophoresis (Comet assay). DNA damage was assessed using the alkaline or neutral single-cell gel electrophoresis (comet assay) method (Kruman, I. I., et al. 2004. Neuron. 41:549-561; Kruman, I. I., et al. 2002. J Neurosci. 22:1752-176229). We used the neutral comet assay which is specific for detecting DSBs (Wojewodzka, M., et al. 2002. Mutat Res. 518:9-20). Following treatment, neurons were scraped and cell suspensions (˜10,000 cells) were embedded into 0.5% low melting agarose on slides (Trevigen, Gaithersburg, Md.). After treatment with cold lysis buffer (Trevigen) containing 1% Triton X-100 and 10% DMSO, the slides were incubated for 1 h in freshly prepared electrophoresis buffer, 300 mM sodium acetate, 100 mM Tris HCl, pH 8.3 (neutral comet assay) or 300 mM NaOH, 1 mM EDTA, pH>13 (alkaline comet assay). Then electrophoresis was performed at 14V and 60 mA for 1 h (neutral comet assay) or at 25V and 300 mA for 30 min (alkaline comet assay) at 8° C., stained with SYBR green (Trevigen), and analyzed using an Olympus BX51 fluorescent microscope and the comet assay image analysis software (Loats Associates Inc.). […] Images of 50 randomly selected cells were analysed from each slide. […]

[3] = system: primary cortical neurons; experiment: H2O2-induced apoptosis in cultured cortical neurons (apoptotic nuclei count); format: cell-based, rat; conditions: 12 h pretreatment with 1 μM PD 0332991, then 100 μM H2O2 for 18 h; Hoechst 33342; FIG. 4B
Method: All experiments involving the use of animals were approved by the IACUC at the Georgetown University Medical Center, Washington, D.C. Primary cortical cell cultures were established from E18 Sprague-Dawley rats obtained from Jackson Laboratories.
Following dissociation by mild trypsinization and trituration, cells were seeded onto plastic dishes or chamber slides precoated with 0.025 μg/ml poly-L-lysine, at a density of 1.3×10^3 neurons/mm^2 in Neurobasal medium containing B-27 supplement, 1 mM HEPES, 2 mM […] and 0.001% gentamycin sulfate; fresh medium was replaced after 30 minutes.
Analysis of neuronal survival and apoptosis.

[4] = system: pRb phosphorylation; experiment: pRb phosphorylation by Western blot in cortical neurons; format: cell-based, rat; conditions: 12 h pretreatment with 1 μM PD 0332991, then 100 μM H2O2 for 6 h; FIG. 4A
Method: Immunoblot analyses. For total cell lysates, cortical neurons were lysed in ice-cold buffer consisting of 63 mM Tris, 2 mM EDTA, 2 mM EGTA, 2% sodium dodecyl sulfate, 10% glycerol, and a protease inhibitor cocktail (Sigma), pH 6.0. For the preparation of nuclear lysates (for analysis of cyclin D1 and γ-H2AX), cortical neurons were lysed in ice-cold buffer containing protease inhibitor cocktail (Sigma) and incubated with hydrochloric acid (0.2 M) on ice for 30 min.
As a loading control we used anti-β-actin or anti-glyceraldehyde-3-phosphate dehydrogenase (GAPDH) antibodies.
Protein bands were visualized with horseradish peroxidase-conjugated secondary antibodies (1:3000; Jackson Immunological Research Laboratories Inc.) and enhanced using chemiluminescence (ECL kit, Amersham Corp.). Densitometric analysis of the blots were performed using the Kodak software ID 3.5.3 USB, and the intensity of the signal (normalized to the β-actin signals) was expressed as a ratio of the control signals.

[5] = system: CDK4 and CDK6; conditions: Fry et al. 2004; cited from earlier work
[6] = system: tumor; conditions: mice; cited from earlier work
[7] = system: neuronal apoptosis; conditions: in vitro; cited from earlier work
[8] = system: ischemia models; conditions: in vivo; cited from earlier work

For `OO` [H2O2, hydrogen peroxide], the “apoptosis of cortical neurons” value ([1]; 5 μM H2O2, by 24 h or 48 h) was “did not induce apoptosis”, the “apoptotic death of cortical neurons” value ([1]; 100 μM H2O2, FIG. 1) was “significant apoptotic death beginning by 9 h” and the “DNA damage (comet tails)” value [2] was “significant increase of DNA damage”.

For `CC(=O)c1c(C)c2cnc(Nc3ccc(N4CCNCC4)cn3)nc2n(C2CCCC2)c1=O` [PD 0332991], the extent of apoptosis [3] is listed as “significant reduction in the extent of apoptosis”, the “phosphorylation of pRb” value [4] is listed as “down-regulates phosphorylation of pRb” and the “specificity as inhibitor of CDK4 and CDK6” value [5] is listed as “highly specific inhibitor of CDK4 and CDK6”. For the same molecule, the tumor regression [6] was “effective in causing tumor regression in mice”.

In the case of `CN1CC[C@H](c2c(O)cc(O)c3c(=O)cc(-c4ccccc4Cl)oc23)[C@H](O)C1` [flavopiridol], the “prevention of neuronal apoptosis” value [7] is listed as “very potent in preventing neuronal apoptosis in vitro” and the “protection in ischemia models” value [8] is listed as “protective”.
